Measurements as given in ChEMBL document CHEMBL1152884, “The identification of orally bioavailable thrombopoietin agonists” (Bioorg Med Chem Lett, 2009).
≈ marks a conversion by molar mass, not a printed value.

Tests used:
[1] = Lipophilicity, log D of the compound; type: physicochemical; settings: octanol/water
[2] = Aqueous solubility of the compound; type: physicochemical
Thrombopoietin receptor = target: T1, Thrombopoietin receptor (Homo sapiens, UniProt P40238); test: Agonist activity at human thrombopoietin receptor transfected in mouse BAF3 cells assessed as stimulation of beta lactamase activity incubated in dark up to 1 hr; type: functional, cell-based
T1 sequence (P40238 whole entry): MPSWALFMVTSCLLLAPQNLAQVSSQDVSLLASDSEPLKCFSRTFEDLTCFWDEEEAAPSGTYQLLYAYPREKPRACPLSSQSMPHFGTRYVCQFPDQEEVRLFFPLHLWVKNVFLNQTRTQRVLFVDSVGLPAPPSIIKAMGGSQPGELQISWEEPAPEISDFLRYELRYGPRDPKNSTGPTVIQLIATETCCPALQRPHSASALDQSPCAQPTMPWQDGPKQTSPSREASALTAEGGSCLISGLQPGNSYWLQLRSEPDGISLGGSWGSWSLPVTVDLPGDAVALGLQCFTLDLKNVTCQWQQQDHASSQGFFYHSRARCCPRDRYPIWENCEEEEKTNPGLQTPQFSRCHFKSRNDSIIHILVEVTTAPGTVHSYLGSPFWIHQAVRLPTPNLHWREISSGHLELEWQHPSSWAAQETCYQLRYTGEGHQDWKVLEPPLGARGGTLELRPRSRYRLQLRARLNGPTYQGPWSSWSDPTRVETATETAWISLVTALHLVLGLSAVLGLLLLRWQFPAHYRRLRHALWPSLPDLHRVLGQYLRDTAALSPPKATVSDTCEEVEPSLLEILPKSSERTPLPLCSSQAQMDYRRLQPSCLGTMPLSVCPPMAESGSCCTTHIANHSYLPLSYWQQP

Rattus norvegicus = test: Volume of distribution at steady state in rat at 5 mg/kg, po; type: ADME, organism-based; set-up: dose 5 mg/kg, route oral; settings: in vivo
[3] = Half life in rat at 5 mg/kg, po; type: ADME, organism-based; set-up: dose 5 mg/kg, route oral; settings: in vivo
[4] = Plasma clearance in rat at 5 mg/kg, po; type: ADME, organism-based; set-up: dose 5 mg/kg, route oral
[5] = Bioavailability in rat at 5 mg/kg, po; type: ADME, organism-based; settings: in vivo
[6] = Plasma clearance in dog at 5 mg/kg, po; type: ADME, organism-based, Canis lupus familiaris; set-up: dose 5 mg/kg, route oral
[7] = Half life in dog at 5 mg/kg, po; type: ADME, organism-based, Canis lupus familiaris; set-up: dose 5 mg/kg, route oral; settings: in vivo
[8] = Bioavailability in dog at 5 mg/kg, po; type: ADME, organism-based, Canis lupus familiaris; settings: in vivo
Canis familiaris = test: Volume of distribution at steady state in dog at 5 mg/kg, po; type: ADME, organism-based, Canis lupus familiaris; set-up: dose 5 mg/kg, route oral; settings: in vivo
[9] = Permeability across human Caco-2 cell membrane; type: ADME, cell-based; settings: read-out: permeability
[10] = Oral bioavailability in rat; type: ADME, organism-based; settings: in vivo
[11] = Clearance in iv dosed rat; type: ADME, organism-based; settings: in vivo
[12] = Protein binding in human plasma; type: ADME, cell-free; settings: read-out: PPB
[13] = Protein binding in rat plasma; type: ADME, cell-free; settings: read-out: PPB
[14] = Protein binding in dog plasma; type: ADME, cell-free, Canis lupus familiaris; settings: read-out: PPB
[15] = Protein binding in mouse plasma; type: ADME, cell-free; settings: read-out: PPB
[16] = aqueous medium, read-out: solubility

SMILES	logD [1]	solubility [2, 16]	EC50 (Thrombopoietin receptor)	further results
O=C(Nc1nc(-c2cccc(OC(F)(F)F)c2F)cs1)c1ccc(Nc2cc(N3CC(O)C3)ncn2)cc1	4.61	< 1 µg/mL		
O=C(Nc1nc(-c2cccc(C(F)(F)F)c2F)cs1)c1cnc(N2CCCCC2)c(Cl)c1	7.1	< 10 µg/mL	> 10000 nM	
O=C(Nc1nc(-c2cccc(C(F)(F)F)c2F)cs1)c1cc(Cl)c(N2CCC(C(=O)O)CC2)c(Cl)c1		< 10 µg/mL	10 nM	
NCCO.O=C(Nc1nc(-c2cccc(C(F)(F)F)c2F)cs1)c1cnc(N2CCC(C(=O)O)CC2)c(Cl)c1		15600 µg/mL		
O=C(Nc1nc(-c2cccc(C(F)(F)F)c2F)cs1)c1cnc(N2CCC(C(=O)O)CC2)c(Br)c1		< 10 µg/mL	50 nM	
O=C(Nc1nc(-c2cccc(C(F)(F)F)c2F)cs1)c1ccc(N2CCC(C(=O)O)CC2)c(Cl)c1		< 10 µg/mL	56 nM	
COc1cc(C(=O)Nc2nc(-c3cccc(C(F)(F)F)c3F)cs2)cnc1N1CCC(C(=O)O)CC1		< 10 µg/mL	> 1000 nM	
C[C@H]1CN(c2ncc(C(=O)Nc3nc(-c4cccc(C(F)(F)F)c4F)cs3)cc2Cl)CC1C(=O)O (some centres undefined)	2.79	< 10 µg/mL	43 nM	
CC1=NN(c2ccc(C)c(C)c2)C(=O)/C1=N\Nc1cccc(-c2cccc(C(=O)[O-])c2)c1O.[Na+]				Vdss (Rattus norvegicus): 0.831 L/kg; half-life [3]: 80.4 min; CL/F [4]: 6.87 mL/min/kg; bioavailability [5]: 66.8%
CC1=NN(c2ccc(C)c(C)c2)C(=O)/C1=N\Nc1cccc(-c2cccc(C(=O)O)c2)c1O.NCCO				Vdss (Rattus norvegicus): 0.579 L/kg; CL/F [6]: 0.94 mL/min/kg; half-life [7]: 139 min; bioavailability [8]: 50%; half-life [3]: 77.4 min; solubility ([2]; buffer): < 1 µg/mL; CL/F [4]: 6.34 mL/min/kg; bioavailability [5]: 53.4%; Vdss (Canis familiaris): 0.228 L/kg
O=C(Nc1nc(-c2cccc(C(F)(F)F)c2F)cs1)c1cnc(N2CCC(C(=O)O)CC2)c(C(F)(F)F)c1		< 10 µg/mL	134 nM	
N#Cc1cc(C(=O)Nc2nc(-c3cccc(C(F)(F)F)c3F)cs2)cnc1N1CCC(C(=O)O)CC1		< 10 µg/mL	138 nM	
Cc1cc(C(=O)Nc2nc(-c3cccc(C(F)(F)F)c3F)cs2)cnc1N1CCC(C(=O)O)CC1		< 10 µg/mL	253 nM	
NC(=O)C1CCN(c2ncc(C(=O)Nc3nc(-c4cccc(C(F)(F)F)c4F)cs3)cc2Cl)CC1	4.92	< 10 µg/mL	28 nM	
O=C(Nc1nc(-c2cccc(C(F)(F)F)c2F)cs1)c1cnc(N2CCC(C(=O)O)CC2)c(F)c1		< 10 µg/mL	> 1000 nM	
O=C(Nc1nc(-c2cccc(C(F)(F)F)c2F)cs1)c1ccc(N2CCC(C(=O)O)C2)nc1 (centres undefined)	1.21	167 µg/mL (≈ 348 µM)	3300 nM	Papp [9]: 4.5 ×10⁻⁶ cm/s; bioavailability [10]: < 3%; clearance [11]: 2.5 mL/min/kg
O=C(Nc1nc(-c2cccc(C(F)(F)F)c2F)cs1)c1cnc(N2CCCC(C(=O)O)C2)c(Cl)c1 (centres undefined)	2.94	< 10 µg/mL	294 nM	
O=C(Nc1nc(-c2cccc(C(F)(F)F)c2F)cs1)c1cnc(N2CCNC(C(=O)O)C2)c(Cl)c1 (centres undefined)	1.88	< 10 µg/mL	129 nM	
NS(=O)(=O)C1CCN(c2ncc(C(=O)Nc3nc(-c4cccc(C(F)(F)F)c4F)cs3)cc2Cl)CC1	4.86	< 10 µg/mL	34 nM	
O=C(Nc1nc(-c2cccc(C(F)(F)F)c2F)cs1)c1cnc(N2CCC(c3nn[nH]n3)CC2)c(Cl)c1	3.24	< 10 µg/mL	485 nM	
NCCO.O=C(Nc1nc(-c2cccc(C(F)(F)F)c2F)cs1)c1ccc(N2CCC(C(=O)O)C2)nc1 (centres undefined)		> 2000 µg/mL		
O=C(Nc1nc(-c2cccc(C(F)(F)F)c2F)cs1)c1ccc(N2CCC(C(=O)O)CC2)nc1	1.83	< 10 µg/mL	430 nM	
O=C(Nc1nc(-c2cccc(C(F)(F)F)c2F)cs1)c1cnc(N2CCC(C(=O)O)CC2)c(Cl)c1	2.94	< 10 µg/mL	33 nM	fraction unbound [12]: < 0.005; fraction unbound [13]: < 0.005; fraction unbound [14]: < 0.005; fraction unbound [15]: < 0.005
C[C@@H](Nc1ncc(C(=O)Nc2nc(-c3cccc(C(F)(F)F)c3F)cs2)cc1Cl)C(=O)O	1.57	< 10 µg/mL	57 nM	
CC1=NN(c2ccc(C)c(C)c2)C(=O)/C1=N\Nc1cccc(-c2cccc(C(=O)O)c2)c1O [ELTROMBOPAG]				solubility ([2]; buffer): 14000 µg/mL (≈ 31600 µM)
